Read-outs that look alike come from different tables or passages of the source.

Test [1] concerns the target recombinant human SOS1 polypeptide (amino acids 560-1049) (Homo sapiens (Human), UniProt Q07889). As to the kind of experiment: biochemical. To be noted: read-out: Ki, Inhibition of Labeled Tracer Binding to SOS1. In kind it is binding.
A further test concerns pERK in MKN1 cells. As to the kind of experiment: cells. The format is cell-based. The settings on record: Homo sapiens, MKN-1, pERK inhibition, In-Cell Western, MKN1 or H358 cells (Table 24 does not say which), 0.5-1 hour incubation.
Setting [2] is: HTRF displacement, Cy5 labelled tracer, Morrison equation for competitive binding.

Chain of recombinant human SOS1 polypeptide (amino acids 560-1049) (Q07889 560-1049): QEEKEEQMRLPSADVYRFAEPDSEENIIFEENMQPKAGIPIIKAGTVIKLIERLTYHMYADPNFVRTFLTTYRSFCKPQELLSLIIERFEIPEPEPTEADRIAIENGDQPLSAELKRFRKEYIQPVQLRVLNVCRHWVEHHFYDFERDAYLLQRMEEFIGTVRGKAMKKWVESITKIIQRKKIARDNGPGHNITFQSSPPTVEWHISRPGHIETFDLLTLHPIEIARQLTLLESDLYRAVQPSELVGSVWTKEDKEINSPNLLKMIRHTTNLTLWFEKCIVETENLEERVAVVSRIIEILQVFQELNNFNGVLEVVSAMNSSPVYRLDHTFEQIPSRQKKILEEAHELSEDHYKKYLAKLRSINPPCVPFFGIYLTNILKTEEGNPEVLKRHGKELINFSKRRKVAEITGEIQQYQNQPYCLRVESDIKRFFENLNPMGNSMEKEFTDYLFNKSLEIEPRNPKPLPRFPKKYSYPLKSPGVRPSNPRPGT

For the compound `Cc1c(C#N)cccc1[C@@H](C)Nc1nnc(C)c2cnc(N3CC(C)(N(C)C)C3)cc12` [Example 12-43], the Ki in test [1] (setting [2]) stood at 3.38 nM. For the same compound, the IC50 with pERK in MKN1 cells (read-out: IC50) came out at 44 nM.
Take `Cc1nnc(N[C@H](C)c2cc(F)cc(C(F)(F)F)c2)c2cc(N3CCOCC3)ncc12` [Example 6-14, (R)-N-(1-(3-fluoro-5-(trifluoromethyl)phenyl)ethyl)-4-methyl-7-morpholinopyrido[3,4-d]pyridazin-1-amine]: in test [1] (setting [2]), the Ki is 5.51 nM. In addition, the IC50 in the test on pERK in MKN1 cells (read-out: IC50) was 320 nM.
Taken in the same sequence, the figures for `Cc1c(C#N)cccc1[C@@H](C)Nc1nnc(C)c2cnc(N3CC4(CCN(C)C4=O)C3)cc12` [Example 12-35] were 3.78 nM and 35 nM.
For `Cc1c([C@@H](C)Nc2nnc(C)c3cnc(N4CC5(CCN(C)C5)C4)cc23)cccc1C(F)(F)F` [Example 12-17], the Ki in test [1] (setting [2]) came to 0.46 nM. The IC50 with pERK in MKN1 cells (read-out: IC50) was found to be 17 nM.
On to `Cc1c([C@@H](C)Nc2nnc(C)c3cnc(N4CC5(COC5)C4)cc23)cccc1C(F)(F)F` [Example 12-3], for which the Ki in test [1] (setting [2]) came out at 0.74 nM. Further, the IC50 in the test on pERK in MKN1 cells (read-out: IC50) stood at 30 nM.
Consider `Cc1c([C@@H](C)Nc2nncc3ccc(OC4CCN(C)CC4)cc23)cccc1C(F)(F)F` [Example 2-6, (R)-N-(1-(2-methyl-3-(trifluoromethyl)phenyl)ethyl)-7-((1-methylpiperidin-4-yl)oxy)phthalazin-1-amine], for which the Ki in test [1] (setting [2]) stood at 2.1 nM. Also, in the test with pERK in MKN1 cells (read-out: IC50), the IC50 was 83 nM.
Regarding `Cc1c([C@@H](C)Nc2nnc(CN(C)C)c3cnc(N4C[C@H]5C[C@@H]4CO5)cc23)cccc1C(F)(F)F` [Example 14-6, 7-((1R,4R)-2-oxa-5-azabicyclo[2.2.1]heptan-5-yl)-4-((dimethylamino)methyl)-N-((R)-1-(2-methyl-3-(trifluoromethyl)phenyl)ethyl)pyrido[3,4-d]pyridazin-1-amine], the Ki in test [1] (setting [2]) came out at 2.56 nM. Also, the IC50 with pERK in MKN1 cells (read-out: IC50) amounted to 142 nM.
Consider `Cc1nnc(N[C@H](C)c2cc(N)c(F)c(C(F)(F)F)c2)c2cc(N3C[C@H]4C[C@@H]3CO4)ccc12` [Example 16-14, N-((R)-1-(3-amino-4-fluoro-5-(trifluoromethyl)phenyl)ethyl)-7-((1R,4R)-2-oxa-5-azabicyclo[2.2.1]heptan-5-yl)-4-methylphthalazin-1-amine], for which, in test [1] (setting [2]), the Ki was 1.71 nM. The IC50 in the test on pERK in MKN1 cells (read-out: IC50) turned out to be 37 nM.
As for `Cc1cc(C#N)cc([C@@H](C)Nc2nnc(C)c3ccc(N4CCOCC4)cc23)c1` [Example 21-4, (R)-3-methyl-5-(1-((4-methyl-7-morpholinophthalazin-1-yl)amino)ethyl)benzonitrile], in test [1], the Ki came out at 13.7 nM. Moreover, in the test on pERK in MKN1 cells, the IC50 was determined as 118 nM.
As to `COCCN1C[C@H]2CC[C@@H]1CN2c1cc2c(N[C@H](C)c3cccc(C#N)c3C)nnc(C)c2cn1` [Example 12-70], the Ki in test [1] (setting [2]) turned out to be 0.68 nM. Further, the IC50 in the test with pERK in MKN1 cells (read-out: IC50) was determined as 13 nM.
Regarding `Cc1cc([C@@H](C)Nc2nnc(C)c3ccc(N4CCOCC4)cc23)cc(C(F)(F)F)c1` [Example 10-61, (R)-4-methyl-N-(1-(3-methyl-5-(trifluoromethyl)phenyl)ethyl)-7-morpholinophthalazin-1-amine], in test [1] (setting [2]), the Ki is 1.61 nM. The IC50 with pERK in MKN1 cells (read-out: IC50) came out at 57 nM.
As to `Cc1c([C@@H](C)Nc2nncc3ccc(N4CCC5C4CCCN5C)cc23)cccc1C(F)(F)F` (stereo partly drawn) [Example 1-38, N-((R)-1-(2-methyl-3-(trifluoromethyl)phenyl)ethyl)-7-(4-methyloctahydro-1H-pyrrolo[3,2-b]pyridin-1-yl)phthalazin-1-amine], the Ki in test [1] (setting [2]) was found to be 0.5 nM. The IC50 with pERK in MKN1 cells (read-out: IC50) amounted to 136 nM.
For `Cc1nnc(N[C@H](C)c2cccc(C(F)(F)C(C)(C)O)c2F)c2cc(N3CC4CC(C3)O4)ncc12` [Example 20-3, 1-(3-((1R)-1-((7-(6-oxa-3-azabicyclo[3.1.1]heptan-3-yl)-4-methylpyrido[3,4-d]pyridazin-1-yl)amino)ethyl)-2-fluorophenyl)-1,1-difluoro-2-methylpropan-2-ol], the Ki in test [1] (setting [2]) is 0.92 nM. Moreover, the IC50 with pERK in MKN1 cells (read-out: IC50) came out at 16 nM.

(Values after patent publication US11702418B2, “SOS1 inhibitors” (priority 2019, dated 2023).)
